Source: article PMC5657534 (Nature chemical biology, 2017)

Target: ClbH (full-length) (Escherichia coli, UniProt Q0P7J8)
Test: ATP-[…]PPi exchange
Format: biochemical
Conditions: Mg2+, pH 8.3, room temperature, 1 mM amino acid

Chain of ClbH (full-length) (Q0P7J8 1-1598): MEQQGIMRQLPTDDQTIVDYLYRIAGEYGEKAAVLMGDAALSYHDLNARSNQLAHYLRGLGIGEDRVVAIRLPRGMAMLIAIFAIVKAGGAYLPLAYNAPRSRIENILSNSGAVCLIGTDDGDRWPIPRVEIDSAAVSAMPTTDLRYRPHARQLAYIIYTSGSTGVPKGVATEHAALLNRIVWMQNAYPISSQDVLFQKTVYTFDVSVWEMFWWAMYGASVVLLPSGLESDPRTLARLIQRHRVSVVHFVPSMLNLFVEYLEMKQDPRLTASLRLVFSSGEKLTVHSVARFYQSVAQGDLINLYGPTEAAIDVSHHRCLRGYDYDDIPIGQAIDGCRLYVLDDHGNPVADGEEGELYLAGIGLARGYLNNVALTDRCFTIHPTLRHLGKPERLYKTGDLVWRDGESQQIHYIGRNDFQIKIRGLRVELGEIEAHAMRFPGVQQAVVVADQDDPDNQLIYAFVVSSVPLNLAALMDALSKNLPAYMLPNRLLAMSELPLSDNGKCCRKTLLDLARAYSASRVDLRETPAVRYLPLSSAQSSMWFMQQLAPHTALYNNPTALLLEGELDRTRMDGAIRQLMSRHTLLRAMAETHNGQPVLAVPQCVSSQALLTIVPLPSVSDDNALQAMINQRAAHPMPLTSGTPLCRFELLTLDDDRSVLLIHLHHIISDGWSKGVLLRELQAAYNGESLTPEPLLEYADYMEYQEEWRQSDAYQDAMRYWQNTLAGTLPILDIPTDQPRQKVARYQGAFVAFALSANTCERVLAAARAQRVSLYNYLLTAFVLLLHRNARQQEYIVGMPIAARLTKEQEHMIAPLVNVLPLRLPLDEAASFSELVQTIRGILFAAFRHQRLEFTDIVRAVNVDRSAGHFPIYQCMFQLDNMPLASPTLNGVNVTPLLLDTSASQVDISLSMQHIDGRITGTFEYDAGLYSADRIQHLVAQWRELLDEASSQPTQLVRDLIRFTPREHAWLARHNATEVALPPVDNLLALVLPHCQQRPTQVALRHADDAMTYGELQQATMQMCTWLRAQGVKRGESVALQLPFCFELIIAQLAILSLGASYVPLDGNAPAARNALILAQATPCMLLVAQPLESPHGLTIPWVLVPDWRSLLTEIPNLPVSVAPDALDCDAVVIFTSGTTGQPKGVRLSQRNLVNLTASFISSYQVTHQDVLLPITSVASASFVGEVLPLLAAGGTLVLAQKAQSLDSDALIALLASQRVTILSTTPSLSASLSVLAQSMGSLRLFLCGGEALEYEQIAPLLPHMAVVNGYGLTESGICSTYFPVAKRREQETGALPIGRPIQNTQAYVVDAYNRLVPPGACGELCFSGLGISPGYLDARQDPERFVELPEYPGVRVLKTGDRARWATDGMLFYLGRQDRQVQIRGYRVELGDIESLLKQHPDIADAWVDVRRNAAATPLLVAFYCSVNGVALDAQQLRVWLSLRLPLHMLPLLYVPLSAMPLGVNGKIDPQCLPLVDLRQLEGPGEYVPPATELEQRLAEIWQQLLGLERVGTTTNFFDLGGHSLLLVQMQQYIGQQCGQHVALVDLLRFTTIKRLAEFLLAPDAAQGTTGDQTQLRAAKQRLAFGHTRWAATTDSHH

## N[C@@H](CO)C(=O)O [L-Ser]
  ATP-[32P]PPi exchange: full-length ClbH activated L-Ser and SAM (Fig. 1b)
